These results are taken from ChEMBL document CHEMBL1153219, “Evaluation of human neutrophil elastase inhibitory effect of iridoid glycosides from Hedyotis diffusa” (Bioorg Med Chem Lett, 2010).

For this assay, the target named is T1, Neutrophil elastase (Homo sapiens, UniProt P08246).
T1 sequence (P08246 whole entry): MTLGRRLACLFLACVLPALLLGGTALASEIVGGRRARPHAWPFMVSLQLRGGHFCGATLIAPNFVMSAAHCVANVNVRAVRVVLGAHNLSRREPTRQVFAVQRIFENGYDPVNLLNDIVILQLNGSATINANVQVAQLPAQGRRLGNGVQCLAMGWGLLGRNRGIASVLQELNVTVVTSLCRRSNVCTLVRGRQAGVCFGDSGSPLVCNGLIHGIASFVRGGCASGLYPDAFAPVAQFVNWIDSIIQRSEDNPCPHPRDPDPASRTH
Kind of assay: Inhibition of human neutrophil elastase.

For orientation: IC50 means the concentration that gives 50% inhibition. High values mean weaker potency in that assay, low ones greater potency in that assay. `O=C(O[C@@H]1Cc2c(O)cc(O)cc2O[C@@H]1c1cc(O)c(O)c(O)c1)c1cc(O)c(O)c(O)c1` [EPIGALOCATECHIN GALLATE]: the 50% inhibitory concentration (IC50) came to 12.8 µM.
